The assay has as its target T1, human amylin receptors (Homo sapiens, UniProt O60896+P30988).
T1 construct: host or cells: CHO-K1/Ga15/AMY3 cells, further stably transfected with a CRE-luciferase plasmid
T1 sequence (P30988 25-474): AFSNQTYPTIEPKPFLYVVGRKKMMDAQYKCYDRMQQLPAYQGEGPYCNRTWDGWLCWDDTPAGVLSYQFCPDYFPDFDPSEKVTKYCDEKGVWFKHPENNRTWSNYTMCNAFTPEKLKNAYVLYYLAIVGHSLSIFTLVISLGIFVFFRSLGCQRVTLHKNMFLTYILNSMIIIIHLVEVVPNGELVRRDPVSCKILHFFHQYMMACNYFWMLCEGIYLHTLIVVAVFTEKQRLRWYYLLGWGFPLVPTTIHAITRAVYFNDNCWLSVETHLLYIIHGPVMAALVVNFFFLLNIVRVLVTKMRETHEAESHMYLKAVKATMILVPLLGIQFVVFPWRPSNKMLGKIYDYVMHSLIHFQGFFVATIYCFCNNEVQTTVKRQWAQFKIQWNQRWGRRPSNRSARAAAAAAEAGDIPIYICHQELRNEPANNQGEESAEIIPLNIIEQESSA
T1 sequence (O60896 24-148 partner): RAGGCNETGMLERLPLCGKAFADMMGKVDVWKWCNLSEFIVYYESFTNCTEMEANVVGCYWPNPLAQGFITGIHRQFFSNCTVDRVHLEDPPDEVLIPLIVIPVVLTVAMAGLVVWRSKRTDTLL
Put plainly: Luciferase assay in stably transfected amylin receptor/CRE-luc CHO cell line. It is filed as cell-based. The conditions noted are these: for Relative activity: EC50 ratio of Cagrilintide to the compound, Cagrilintide 100%; for EC50: amylin receptor/CRE-luc CHO cells, 24 hours incubation, luminescence. An excerpt: The objective of this assay is to test the potency of derivatives of polypeptides of the present application on human amylin receptors in vitro using a luciferase assay. Using the standard protocol, CHO-K1/Ga15/AMY3 cells (purchased from GenScript, with the calcitonin receptor and the receptor activity modifying peptide (RAMP) constructed already) were transfected with a plasmid containing a luciferase expression cassette driven by multiple copies of cAMP response elements (CREs). The cells were cultured in an F12 medium containing 200 μg/mL Zeocin, 2 μg/mL puromycin, 100 μg/mL hygromycin, and 400 μg/mL G418 to afford a stably transfected amylin receptor/CRE-luc cell line. The lyophilized powder from Example 1 was dissolved in 20 mM phosphate buffer solution with a pH of 7.0, and diluted in a growth medium (F12 culture medium containing 10% FBS) to give a derivative sample with an initial concentration of 10 nM, which was then subjected to a 5-fold serial dilution in the growth medium to obtain seven samples with concentrations between […]. In each well of a white 96-well plate, 50 μL of the tested sample solution was added with a corresponding concentration. The stably transfected amylin receptor/CRE-luc CHO cells were resuspended in the growth medium at a certain density, and 50 μL of the cell suspension was added at a density of about 20000 cells per well to the white 96-well plate containing the tested sample solution. After incubation of 24 hours at 37° C. and 5% CO2, 100 μL of a Luciferase substrate was added to each well, incubated for 3 minutes, and finally was tested for luminescence on SpectraMax L (Molecular Devices) with the software SoftMax Pro 7.0.3 GxP.

In general, EC50 refers to the midpoint of the concentration-response curve. High values mean weaker potency, low ones greater potency.

Starred links: 1 amine or outer side, 2 acyl side, 3 side chain; linkers in the order of their positions; H or OH if unused. Residues, ends and D or L forms follow the SMILES beside them. *: point of attachment. C20 diacid = O=C(O)CCCCCCCCCCCCCCCCCCC(=O)*; C18 diacid = O=C(O)CCCCCCCCCCCCCCCCC(=O)*; γGlu = O=C(O)[C@H](CCC(=O)[*:2])N[*:1]; Trx = NC[C@H]1CC[C@H](C(=O)O)CC1; AEEA = NCCOCCOCC(=O)O; Inp = O=C(O)C1CCNCC1

Take `CC[C@H](C)[C@H](NC(=O)[C@H](CC(=O)O)NC(=O)[C@H](CCCNC(=N)N)NC(=O)[C@H](CC(=O)O)NC(=O)[C@H](CCCNC(=N)N)NC(=O)[C@H](CC(=O)O)NC(=O)[C@@H](NC(=O)[C@H](Cc1ccccc1)NC(=O)[C@H](Cc1c[nH]cn1)NC(=O)[C@H](CCCNC(=N)N)NC(=O)[C@H](CC(C)C)NC(=O)[C@H](Cc1ccccc1)NC(=O)[C@H](CC(=O)O)NC(=O)[C@H](C)NC(=O)[C@H](CC(C)C)NC(=O)[C@H](CCCNC(=N)N)NC(=O)[C@H](CCC(N)=O)NC(=O)[C@@H](NC(=O)[C@H](C)NC(=O)[C@H](C)NC(=O)[C@@H](NC(=O)[C@H](CO)NC(=O)[C@H](CC(C)C)NC(=O)[C@H](CCC(N)=O)NC(=O)[C@H](CO)NC(=O)[C@H](C)NC(=O)COCCOCCNC(=O)COCCOCCNC(=O)[C@H]1CC[C@H](CNC(=O)CCCCCCCCCCCCCCCCCCC(=O)O)CC1)[C@@H](C)O)[C@@H](C)O)[C@@H](C)O)C(=O)N[C@@H](CC(C)C)C(=O)N1CCC[C@H]1C(=O)N1CCC[C@H]1C(=O)N[C@H](C(=O)N[C@@H](CC(N)=O)C(=O)N[C@H](C(=O)NCC(=O)N[C@@H](CO)C(=O)N[C@@H](CC(N)=O)C(=O)N[C@H](C(=O)N1CCC[C@H]1C(N)=O)[C@@H](C)O)C(C)C)[C@@H](C)O` [M20] ({C20 diacid-Trx-AEEA-AEEA}-ASQLSTAATQRLADFLRHFTDRDRDILPPTNVGSNTP-NH2): the Relative activity is 171%.

As for `CC[C@H](C)[C@H](NC(=O)[C@H](CC(=O)O)NC(=O)[C@H](CCCNC(=N)N)NC(=O)[C@H](CC(=O)O)NC(=O)[C@H](CCCNC(=N)N)NC(=O)[C@H](CC(=O)O)NC(=O)[C@@H](NC(=O)[C@H](Cc1ccccc1)NC(=O)[C@H](Cc1c[nH]cn1)NC(=O)[C@H](CCCNC(=N)N)NC(=O)[C@H](CC(C)C)NC(=O)[C@H](Cc1ccccc1)NC(=O)[C@H](CC(=O)O)NC(=O)[C@H](C)NC(=O)[C@H](CC(C)C)NC(=O)[C@H](CCCNC(=N)N)NC(=O)[C@H](CCC(N)=O)NC(=O)[C@@H](NC(=O)[C@H](C)NC(=O)[C@H](C)NC(=O)[C@@H](NC(=O)[C@H](CO)NC(=O)[C@H](CC(C)C)NC(=O)[C@H](CCC(N)=O)NC(=O)[C@H](CO)NC(=O)[C@H](C)NC(=O)COCCOCCNC(=O)COCCOCCNC(=O)C1CCN(C(=O)CCCCCCCCCCCCCCCCCCC(=O)O)CC1)[C@@H](C)O)[C@@H](C)O)[C@@H](C)O)C(=O)N[C@@H](CC(C)C)C(=O)N1CCC[C@H]1C(=O)N1CCC[C@H]1C(=O)N[C@H](C(=O)N[C@@H](CC(N)=O)C(=O)N[C@H](C(=O)NCC(=O)N[C@@H](CO)C(=O)N[C@@H](CC(N)=O)C(=O)N[C@H](C(=O)N1CCC[C@H]1C(N)=O)[C@@H](C)O)C(C)C)[C@@H](C)O` [M21] ({C20 diacid-Inp-AEEA-AEEA}-ASQLSTAATQRLADFLRHFTDRDRDILPPTNVGSNTP-NH2), the Relative activity is 126% and the EC50 stood at 0.023 nM.

As to `CC[C@H](C)[C@H](NC(=O)[C@H](CC(=O)O)NC(=O)[C@H](CCCNC(=N)N)NC(=O)[C@H](CC(=O)O)NC(=O)[C@H](CCCNC(=N)N)NC(=O)[C@H](CC(=O)O)NC(=O)[C@@H](NC(=O)[C@H](Cc1ccccc1)NC(=O)[C@H](Cc1c[nH]cn1)NC(=O)[C@H](CCCNC(=N)N)NC(=O)[C@H](CC(C)C)NC(=O)[C@H](Cc1ccccc1)NC(=O)[C@H](CC(=O)O)NC(=O)[C@H](C)NC(=O)[C@H](CC(C)C)NC(=O)[C@H](CCCNC(=N)N)NC(=O)[C@H](CCC(N)=O)NC(=O)[C@@H](NC(=O)[C@H](C)NC(=O)[C@H](C)NC(=O)[C@@H](NC(=O)[C@H](CO)NC(=O)[C@H](CC(C)C)NC(=O)[C@H](CCC(N)=O)NC(=O)[C@H](CO)NC(=O)[C@H](C)NC(=O)CC[C@H](NC(=O)CCCCCCCCCCCCCCCCC(=O)O)C(=O)O)[C@@H](C)O)[C@@H](C)O)[C@@H](C)O)C(=O)N[C@@H](CC(C)C)C(=O)N1CCC[C@H]1C(=O)N1CCC[C@H]1C(=O)N[C@H](C(=O)N[C@@H](CC(N)=O)C(=O)N[C@H](C(=O)NCC(=O)N[C@@H](CO)C(=O)N[C@@H](CC(N)=O)C(=O)N[C@H](C(=O)N1CCC[C@H]1C(N)=O)[C@@H](C)O)C(C)C)[C@@H](C)O` [M22] ({C18 diacid-γGlu}-ASQLSTAATQRLADFLRHFTDRDRDILPPTNVGSNTP-NH2), the Relative activity was 198% and the concentration for a half-maximal effect (EC50) is 0.016 nM.

The values are drawn from patent US20260265329A1, “POLYPEPTIDE AND DERIVATIVE THEREOF, COMPOSITION, AND USE THEREOF” (HANGZHOU SCIWIND BIOSCIENCES CO., LTD., priority 2023, published 2026).
